Patent US20080306019A1, “Dopamine Receptor Agonists in the Treatment and Prevention of Hiv-Induced Dementia” (priority 2005, published 2008)

Assays:
human fetal neurons [1] = conditions: human fetal neuronal cultures, Turchan et al. 2001; cited from earlier work
human fetal neurons [2] = tested on: human fetal neurons
Method: Culture of Human Brain Cells: Neuronal cultures were prepared as described previously (Magnuson D S, et al. Ann Neurol 1995, 37: 373-380; Nath A, et al. J Virol 1996, 70: 1475-1480; New D, et al. J Neurovirol 1997, 3: 168-173). Human fetal brain specimens of gestational age 12-14 weeks were obtained with the consent of women opting for elective termination of pregnancy. Protocols were carried out with strict adherence to the guidelines of the National Institutes of Health (NIH) and with approval from the University of Kentucky Institutional Review Board. Briefly, after mechanical dissociation, the cells were suspended in Opti-MEM with 5% heat-inactivated fetal bovine serum, 0.2% N2 supplement and 1% antibiotic solution (penicillin G sodium 104 units/ml, streptomycin sulfate 10 μg/ml and amphotericin-B 25 μg/ml) (GIBCO). The cells were maintained in culture flasks at 37° C. in a humidified atmosphere of 5% CO2 and 95% air for at least a month. At least 3 days before the experiment was performed the cells were plated in flat bottom 96 well plates coated with poly-d-lysine. Sample cultures were stained for the neuron-specific enolase, microtubule-associated protein-2, synaptophysin, and glial fibrillary astrocytic protein (GFAP). […] Sample cultures were further characterized for the presence of ER-α and ER-β and dopaminergic neurons.
Neurotoxicity Assay: At the time of the experimental treatment, the culture media was replaced with Locke's buffer containing (in mM) 154 NaCl, 5.6 KCl, 2.3 CaCl2, 1 MgCl2, 3.6 NaHCO3, 5 glucose, 5 N-2-hydroxyethylpiperazine-N′2-ethanesulfonic acid (HEPES) and 1% antibiotic solution (penicillin G sodium 104 units/ml, streptomycin sulfate 10 μg/ml and amphotericin-B 25 μg/ml) (pH 7.2). […] To replicate the stereoisomer specific neuroprotective properties of estrogen, the cultures were treated with either […] (10 nM), or 17α-E2 (10 nM) immediately preceding addition of the HIV proteins plus cocaine. To investigate the neuroprotective properties of other gonadal steroids, the cells were treated with various concentrations of PROG or T, immediately followed by exposure to the HIV proteins plus cocaine. […] Various concentrations of cholesterol were used as treatment prior to incubation with the HIV proteins plus cocaine to further characterize the nature of gonadal steroid neuroprotection. ICI-182,780, DMSO (10 nM), β-cyclodextrin (100 nM) and ethanol (10 nM) were also tested for neurotoxic/protective effects. ICI-182,780 and 17α-E2 were solvated in DMSO. […], T, PROG and cholesterol were β-cyclodextrin encapsulated to provide water solubility. Ethanol was used to solvate DHT. Tat1-72 was produced as indicated above, whereas gp120 was a gift from Chiron Corporation. The ICI-182,780 compound was obtained from Tocris Cookson, Inc. (Ellisville, Mo.). All other chemical agents were supplied by Sigma Chemicals (St. Louis, Mo.). At the end of the incubation period neuronal death was assessed by trypan blue (Sigma) exclusion assay as described previously (Vongher J and Frye C. Pharmacol Biochem Behav 1999, 64: 777-785; Magnuson D S, et al. Ann Neurol 1995, 37: 373-380; Nath A, et al. J Virol 1996, 70: 1475-1480).

rat hippocampal neurons [3] = assay: Intracellular ROS production (DCF fluorescence) in rat hippocampal neuronal cultures; assay type: cell-based
Method: Neuronal cultures were incubated with 10 μM H2DCFDA (Molecular Probes, Eugene, Oreg.) for 60 min at 37° C. in PBS.
No decrease in neuronal viability occur-red in cell cultures subjected to Tat alone or Tat+cocaine after 2 hours of treatment.

rat hippocampal neurons [4] = assay: Protein carbonyl immunoreactivity in rat hippocampal cell cultures; conditions: 48-hrs treatment

SMILES: COC(=O)[C@H]1[C@@H](OC(=O)c2ccccc2)C[C@@H]2CC[C@H]1N2C.Cl [cocaine, Cocaine hydrochloride]
- cocaine level not neurotoxic (prior work) (human fetal neurons [1]): ≤ 16 µM
- toxicity of HIV proteins combined with cocaine (human fetal neurons [2]; Tat 40 nM + gp120 32.5 pM + cocaine 1.6 μM): synergistic neurotoxicity
- toxicity alone vs Locke's buffer (human fetal neurons [2]; substance alone, 15 hours): Neither the HIV proteins, Tat plus gp120, nor cocaine alone were more toxic than the Locke's buffer control
- intracellular ROS production, cocaine + Tat vs Tat alone (rat hippocampal neurons [3]; 1.6 μM cocaine + 50 nM Tat, 2 hours): increased intracellular ROS production relative to cultures treated with 50 nM Tat alone
- difference in DCF fluorescence, Tat+cocaine vs Tat (rat hippocampal neurons [3]; 48 hours of treatment): not significant
- DCF fluorescence, cocaine alone (rat hippocampal neurons [3]; cocaine alone): did not cause changes in DCF fluorescence
- levels of protein oxidation, Tat + cocaine vs Tat alone (rat hippocampal neurons [4]): higher than in cultures treated with just Tat alone
